We go through five compounds from patent publication US20030207812A1, “Cd45 inhibitors” (priority 2002, published 2003).

In data set [1] the target is T1, CD45 (Homo sapiens, UniProt P08575).
T1 construct: incubating the cytosolic portion of CD45 with the compounds and p-nitrophenyl phosphate (pNPP); purchased BIOMOL (Plymouth Meeting, Pa.)
T1 sequence (P08575 599-1306 limits assumed): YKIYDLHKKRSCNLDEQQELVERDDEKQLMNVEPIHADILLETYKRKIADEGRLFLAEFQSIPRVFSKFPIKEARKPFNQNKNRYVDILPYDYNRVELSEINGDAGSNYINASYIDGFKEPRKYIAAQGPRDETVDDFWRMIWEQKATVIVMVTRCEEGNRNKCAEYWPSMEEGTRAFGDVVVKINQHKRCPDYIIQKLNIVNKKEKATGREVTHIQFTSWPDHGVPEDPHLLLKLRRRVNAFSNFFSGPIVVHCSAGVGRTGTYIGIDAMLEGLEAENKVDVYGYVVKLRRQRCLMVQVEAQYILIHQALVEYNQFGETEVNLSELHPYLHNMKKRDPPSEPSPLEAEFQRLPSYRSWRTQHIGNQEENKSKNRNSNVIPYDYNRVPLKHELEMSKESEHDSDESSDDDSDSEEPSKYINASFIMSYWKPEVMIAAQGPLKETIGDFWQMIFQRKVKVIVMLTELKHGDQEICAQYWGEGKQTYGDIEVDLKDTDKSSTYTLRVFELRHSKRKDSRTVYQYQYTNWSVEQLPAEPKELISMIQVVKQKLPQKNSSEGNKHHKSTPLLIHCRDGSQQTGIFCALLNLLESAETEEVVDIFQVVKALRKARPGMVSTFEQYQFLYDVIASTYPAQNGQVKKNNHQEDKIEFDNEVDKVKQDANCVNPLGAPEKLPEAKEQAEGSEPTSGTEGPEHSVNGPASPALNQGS
In words: Phosphatase assay using pNPP as substrate. The class given is biochemical. The following applies: CD45 phosphatase, pNPP substrate, pH 7.0; read-out: pNPP IC50. The procedure:
Phosphatase assay using pNPP as substrate:
CD45 enzyme was obtained from BIOMOL (Plymouth Meeting, Pa.). Phosphatase activity was assayed in a buffer containing final concentrations of 25 mM imidazole at pH 7.0, 50 mM NaCl, 2.5 mM ethylenediaminetetraacetic acid (“EDTA”), 5 mM dithiothreitol (“DTT”) and 10 μg/mL bovine serum albumin (“BSA”) using pNPP as a substrate.

Data set [2] concerns the target T1, CD45. Briefly: Phosphatase assay using lck 10-mer as substrate. The class given is biochemical. The following applies: CD45 phosphatase, lck carboxy-terminal peptide TEGQpYQPQP substrate, pH 7.2; read-out: Ick IC50. The method in brief:
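Enzyme incubated with lck phosphopeptide TEGQpYQPQP for 1.5 h at room temperature in 25 mM HEPES pH 7.2, 5 mM DTT, 10 μg/mL BSA, 5% DMSO final. Compounds tested from 30 to 0.01 μM. Released phosphate detected with malachite-type Green Reagent, absorbance at 620 nm after 30 min.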

For another data set, the system named is T cells (PBMC). Briefly: cells. The class given is cell-based, human. Particulars: human PBMC, OKT3 30 ng/mL, [3H]thymidine; read-out: T cell prolif. IC50.
For data set [3], the system named is T-cell lymphoblasts. In words: Cytotoxicity assay (Calcein-AM uptake). The following applies: PHA-expanded T-cell lymphoblasts, overnight incubation, Calcein-AM.
Protocol: (§1) Calcein-AM (Molecular Probes. Eugene, Oreg.) uptake, as a quantitative measure of cell viability, was used to evaluate the toxic effect of compounds on T cells.
(§2) The T-cell lymphoblasts were purified by separation over Lymphoprep, plated at 2×10^5/well in a round bottom 96-well plate containing RPMI with compound and incubated overnight at 37° C. in an incubator containing 5% CO2. The dilution scheme and culture media were the same as those used in the T-cell proliferation assay. After the incubation period, cells were washed with Dulbecco's phosphate-buffered saline (D-PBS) and incubated with 1 μM Calcein-AM for 30-45 mim in D-PBS as described in the technical sheet provided with The LIVE/DEAD Viability/Cytotoxicity Kit from Molecular Probes.
Data set [4] relates to T-cell lymphoblasts.
Protocol: as §1, §2

Read-outs that look alike come from different tables or passages of the source. A value given as a limit tells only on which side of the number the result lay.

Consider “8-(9,10-Dioxo-9,10-dihydro-phenanthren-3-ylcarbamoyl)-heptanoic Acid Methyl Ester [Example 78]”, for which the IC50 was found to be 0.7 µM on CD45 [1], 6.9 µM at CD45 [2] and 1.3 µM in the data set on T cells (PBMC). Besides, the CC50 in the data set on T-cell lymphoblasts [3] is 28 µM.
Take `CCCC(=O)Nc1ccc2c(c1)-c1ccccc1C(=O)C2=O` [Example 9, N-(9,10-Dioxo-9,10-dihydro-phenenathren-3-yl)-butyramide]: the IC50 at CD45 [1] worked out at 0.8 µM; at CD45 [2] it was 5.2 µM; in the data set on T cells (PBMC), 0.8 µM. Moreover, the CC50 with T-cell lymphoblasts [3] was 9.1 µM.
As to `O=C1C(=O)c2ccc(NC(=O)C(Cl)(Cl)Cl)cc2-c2ccccc21` [Example 11, 2,2,2-Trichloro-N(9,10-dioxo-9,10-dihydro-phenanthren-3-yl)-acetamide], the figures for the IC50 on CD45 [1], on CD45 [2] and in the data set on T cells (PBMC) were 2.8 µM, 11.6 µM and 6.5 µM, respectively. For the same compound, the CC50 in the data set with T-cell lymphoblasts [3] was greater than 30 µM.
With `O=C1C(=O)c2c(-c3ccc4ccccc4c3)cccc2-c2ccccc21` [Example 19, 1 -Naphthalen-2-yl-phenanthrene-9,10-dione], the IC50 on CD45 [1] is 4.49 µM; at CD45 [2] it was greater than 30 µM; in the data set with T cells (PBMC), 1.6 µM. Besides, the CC50 in the data set with T-cell lymphoblasts [4] worked out at 4.4 µM.
Take `COC(=O)CCCCCCCCC(=O)Nc1ccc2c(c1)-c1ccccc1C(=O)C2=O` [Example 79, 9-(9,10-Dioxo-9,10-dihydro-phenanthren-3-ylcarbamoyl)-nionanoic Acid Methyl Ester]: the values for the IC50 at CD45 [1], on CD45 [2] and in the data set on T cells (PBMC) were 1.6 µM, greater than 30 µM and 0.5 µM, respectively. Besides, in the data set on T-cell lymphoblasts [3], the CC50 was greater than 30 µM.

Usually IC50 stands for the concentration that gives 50% inhibition. Usually CC50 stands for the concentration that lowers cell viability or growth by half.
